Laboratory results from patent publication US4948894A, “8-fluoro and 7, 8, 10-trifluoro-9-(substituted)-6-oxo-6H-benzo-(C)quinolizine-5-carboxylic acids” (American Cyanamid Company, priority 1989, dated 1990).
Where two headings read alike, the source gives them in different places.

Key:
Experiment in all cases: In vitro antibacterial spectrum, agar plate dilution method (MIC)
Format in all cases: cell-based
Morganella morganii = details: 18 h, 10^4 CFU, 18 hours at 35° C
Method: (§1) The in vitro antimicrobial spectrum of the compounds of the invention were determined by the agar plate dilution method with Mueller-Hinton agar and an inoculum of each test organism of approximately 10^4 colony forming units delivered by the steers replicating device. The minimal inhibitory concentration (MIC) in mcg/ml is defined as the lowest concentration of test compound that inhibited visible growth after 18 hours incubation at 35° C.

Streptococcus faecalis = details: Mueller-Hinton agar, 10^4 CFU, 18 hours at 35° C
Method: as §1

Providencia stuartii = Providencia stuartii CMC 83-3; Mueller-Hinton agar, 10^4 CFU, 18 hours at 35° C
Method: as §1

Proteus rettgeri = details: Providencia rettgeri; Proteus rettgeri IO 83-21; Mueller-Hinton agar, 10^4 CFU, 18 hours at 35° C
Method: as §1

Klebsiella nneumoniae = details: Mueller-Hinton agar, 10^4 CFU, 18 hours at 35° C
Method: as §1

Citrobacter diversus = details: Citrobacter koseri; Citrobacter diversus K 82-24; Mueller-Hinton agar, 10^4 CFU, 18 hours at 35° C
Method: as §1

Escherichia coli = details: 10^4 CFU, 18 hours at 35° C
Method: as §1

Enterobacter cloacae = details: 18 h, 10^4 CFU, 18 hours at 35° C
Method: as §1

Pseudomonas aeruginosa = details: Mueller-Hinton agar, 10^4 CFU, 18 hours at 35° C
Method: as §1

Serratia marcescens = details: 18 h, 10^4 CFU, 18 hours at 35° C
Method: as §1

Staphylococcus aureus = details: Mueller-Hinton agar, 10^4 CFU, 18 hours at 35° C
Method: as §1

Measured: MIC

CN1CCN(c2cc3c(cc2F)c(=O)c(C(=O)O)c2ccccn23)CC1 [Example 6, 8-Fluoro-9-(4-methyl-1-piperazinyl)-6-oxo-6H-benzo[c]quinolizine-5-carboxylic acid]
16 µg/mL: Enterobacter cloacae; Enterobacter cloacae MOR 84-30, Mueller-Hinton agar
1 µg/mL: Proteus rettgeri
4 µg/mL: Morganella morganii; Morganella morganii VGH 84-12, Mueller-Hinton agar | Citrobacter diversus | Escherichia coli; 18 h, Escherichia coli D 21, Mueller-Hinton agar | Escherichia coli; 18 h, Escherichia coli VGH 84-19, Mueller-Hinton agar | Escherichia coli; ATCC25922, 18 h, Escherichia coli ATCC 25922, Mueller-Hinton agar | Serratia marcescens; Serratia marcescens IO 83-63, Mueller-Hinton agar
0.5 µg/mL: Morganella morganii; Morganella morganii CMC 84-38, Mueller-Hinton agar | Morganella morganii; Moroanella morganii MOR 84-45, Mueller-Hinton agar
8 µg/mL: Klebsiella nneumoniae; Klebsiella nneumoniae IO 83-5 | Klebsiella nneumoniae; Klebsiella nneumoniae MOR 84-24, read-out: MIC | Klebsiella nneumoniae; Klebsiella oneumoniae CMC 84-31
> 16 µg/mL: Streptococcus faecalis; Enterococcus faecalis, Streptococcus faecalis VCI 85-30, read-out: MIC | Streptococcus faecalis; Streptococcus faecalis CMC 83-120 | Streptococcus faecalis; Streptococcus faecalis VGH 84-69 | Providencia stuartii | Pseudomonas aeruginosa; Pseudomonas aeruginosa CMC 83-20 | Pseudomonas aeruginosa; Pseudomonas aeruginosa K 84-16, read-out: MIC | Pseudomonas aeruginosa; Pseudomonas aeruginosa VGH 84-3 | Serratia marcescens; Serratia marcescens CMC 83-74, Mueller-Hinton agar | Staphylococcus aureus; ATCC25913, Staphylococcus aureus ATCC 25913, read-out: MIC | Staphylococcus aureus; Staphylococcus aureus CMC 83-131 | Staphylococcus aureus; Staphylococcus aureus K 82-26 | Staphylococcus aureus; Staphylococcus aureus VGH 84-47, read-out: MIC
2 µg/mL: Escherichia coli; 18 h, Escherichia coli CMC 84-50, Mueller-Hinton agar | Escherichia coli; 18 h, Escherichia coli D 22, Mueller-Hinton agar | Escherichia coli; 18 h, Escherichia coli MOR 84-20, Mueller-Hinton agar | Enterobacter cloacae; Enterobacter cloacae K 84-10, Mueller-Hinton agar | Enterobacter cloacae; Enterobacter cloacae VGH 84-39, Mueller-Hinton agar | Serratia marcescens; Serratia marcescens MOR 84-41, Mueller-Hinton agar
